Experimental data from US11006626B2, “Compounds for protection of cells” (Sulfateq B.V., priority 2012, dated 2021).

How the values were obtained:
[1] = system: Human Embryo Kidney (HEK) 293 cells; test: Hypothermia/rewarming injury of HEK cells, trypan blue viability count; format: cell-based; conditions: for viability at 0.01 µM / viability at 0.1 µM / viability at 1 µM / viability at 10 µM / viability at 100 µM / viability at 1000 µM: Homo sapiens, HEK293, 24 h, read-out: % cells that survived; for viability at 0.01 µM / viability at 0.1 µM / viability at 1 µM / viability at 10 µM / viability at 100 µM / viability at 1000 µM / % cells that survived: 24 h at 4° C., 24 h rewarming; for % cells that survived, Mean: mean over the tested concentrations
porcine hearts = test: Cold ischemic tolerance of porcine hearts, reperfusion in PhysioHeart platform; set-up: species or system pig
Excerpt: This example studies if SUL 109 as additive to standard heart transplantation protocols will help to prolong the maximal cold ischemic protection of porcine hearts. For long term arrest, for example in case of transplantation, a commonly used solution is CUSTODIOL®. With CUSTODIOL® solution it is possible to keep a heart in a cold ischemic state for up to six hours before reperfusion with warm oxygenated blood is necessary.
Two hearts were harvested from slaughterhouse pigs and treated as follows. […] After exsanguinations the sternum was quickly opened and the heart and lungs were removed as a whole. The heart was immediately submersed in an ice cold bath and the aorta was cut proximal to the brachocephalic side branches. A 19 mm cannula was inserted in the aorta and tied off. The carefully de-aired cannulla was used to retrogradely administer cold cardioplegic solution. In the first heart, 2 liters of standard CUSTODIOL® with 5000 IU/1 of heparin added was administered. The second heart was administered 2 liters of CUSTODIOL® with 5000 IU/1 of heparin and 10 ml/l of SUL 109 in 0.9% NaCl at 75 μM. Both hearts were stored in plastic bags filled with the same solutions and transported to the lab on ice at approximately 4° C. Before preparation the hearts were stored at 4° C. for 24 hours. The next day both hearts were prepared to be mounted in the PhysioHeart platform as described in DeHart et al 2011. After de-airing the hearts, retrograde reperfusion of the aorta was started with warm oxygenated blood at 38° C. Both flow of blood and pressure at the aortic root were registered during the experiment.

blood platelets = test: Cold storage of PRP blood platelets, aggregation of thrombocytes after storage; format: cell-based; set-up: key: − means that most of the thrombocytes were aggregated; a + indicates that a few cells were still viable but some cells aggregated; a ++ indicates that almost all cells were viable; conditions: 30 mM; PRP platelets stored at 4° C.; 264 hours
Procedure: PRP platelets were harvested and 2.1 ml was suspended in Poly Propylene tubes of 5 ml, closed with a stop.
Several compounds according to the invention were added to the blood platelets directly after preparing the PRP plasma and incubated during 10 minutes at 37° C. or 30 minutes at room temperature. The blood platelets with the compound were then stored at 4° C.
A control was stored under shaking conditions at room temperature. Another control was stored at 4° C. without the addition of a compound.
A sample was taken out of each tube after 264 hours after addition of the compound and tested as follows: • The color and coagulation properties were visually analysed. • The thrombocyte cells that survived were counted and it was evaluated whether the thrombocytes were aggregated. • It was evaluated if the thrombocytes still were able to function after stimulation by the addition of ADP or under influence of collagen in a 96 well plate. • The adhesion was evaluated, meaning the ability of the platelets to bind collagen in a 6 well plate preincubated with collagen. • Via an ELISA assay, it was evaluated whether thromboxane was secreted from the platelets. Thromboxane facilitates aggregation and is produced by activated blood platelets.
Table 3 provides an overview of the results of the addition of the compounds to the blood platelets and evaluates the aggregation of the thrombocytes after addition of the compound according to the invention and cooling until 4° C.

[2] = at reperfusion after 24 hours at 4° C., vs. non treated heart

Cc1c(C)c2c(c(C)c1O)CCC(C)(C(=O)N1CCN(CCO)CC1)O2 (stereo not shown) [SUL - 109, (6-hydroxy-2,5,7,8-tetramethylchroman-2-yl)(4-(2-hydroxyethyl)piperazin-1-yl)methanone]
viability at 0.01 µM ([1]; 10 nM): 92.6%
viability at 0.1 µM ([1]; 100 nM): 98%
viability at 1 µM ([1]; 1 μM): 97%
viability at 10 µM ([1]; 10 μM): 94.9%
viability at 100 µM ([1]; 100 μM): 93.7%
viability at 1000 µM ([1]; 1 mM): 87.4%
% cells that survived, Mean [1]: 94%
contraction after defibrillation shocks (porcine hearts; at reperfusion after 24 hours at 4° C.): weak contractive unpaced pattern
contractile activity (porcine hearts; [2]): more contractile activity compared to the non treated one
vascular resistance (porcine hearts; [2]): lower vascular resistance
coronary flow (porcine hearts; perfusion pressure of 80 mmHg, reperfusion after 24 hours at 4° C.): 1 lpm
contractive activity of the myocardial tissue (porcine hearts; treated vs. non-treated heart): improved regular contractive activity

Cc1c2c(c(C(C)C)c(O)c1C(C)C)CCC(C)(C(=O)O)O2 (stereo not shown) [SUL - 118, 6-hydroxy-5,7-diisopropyl-2,8-dimethylchroman-2-carboxylic acid]
viability at 0.01 µM ([1]; 10 nM): 13.7%
viability at 0.1 µM ([1]; 100 nM): 45.7%
viability at 1 µM ([1]; 1 μM): 36.2%
viability at 10 µM ([1]; 10 μM): 52.9%
viability at 100 µM ([1]; 100 μM): 88.5%
viability at 1000 µM ([1]; 1 mM): 92.5%
% cells that survived, Mean [1]: 55%
Aggregation of blood platelets after storage (blood platelets): +

Cc1c(C)c2c(c(C)c1O)CCC(C)(C(=O)N1CCNCC1)O2 (stereo not shown) [SUL - 121, (6-hydroxy-2,5,7,8-tetramethylchroman-2-yl)(piperazin-1-yl)methanone]
viability at 0.01 µM ([1]; 10 nM): 87.3%
viability at 0.1 µM ([1]; 100 nM): 89%
viability at 1 µM ([1]; 1 μM): 94.8%
viability at 10 µM ([1]; 10 μM): 88.9%
viability at 100 µM ([1]; 100 μM): 92.7%
viability at 1000 µM ([1]; 1 mM): 0%
% cells that survived, Mean [1]: 75%
Aggregation of blood platelets after storage (blood platelets): +

Cc1c(C)c2c(c(C)c1O)CCC(C)(C(=O)N1CCC[C@H]1C(=O)O)O2 (single isomer, unassigned) [SUL - 144]
% cells that survived ([1]; 10 nM): 4.08%
% cells that survived ([1]; 10 μM): 25.93%
viability at 0.1 µM ([1]; 100 nM): 18.3%
viability at 1 µM ([1]; 1 μM): 21.6%
viability at 100 µM ([1]; 100 μM): 91%
viability at 1000 µM ([1]; 1 mM): 92.6%
% cells that survived, Mean [1]: 42%
Aggregation of blood platelets after storage (blood platelets): +

Cc1c(C)c2c(c(C)c1O)CC[C@@](C)(C(=O)N1CCN(CC(=O)O)CC1)O2 [SUL - 141, (S)-2-(4-(6-hydroxy-2,5,7,8-tetramethylchroman-2-carbonyl)piperazin-1-yl)acetic acid]
viability at 0.01 µM ([1]; 10 nM): 58.5%
viability at 0.1 µM ([1]; 100 nM): 96.2%
viability at 1 µM ([1]; 1 μM): 0.75%
viability at 10 µM ([1]; 10 μM): 99.4%
viability at 100 µM ([1]; 100 μM): 96.8%
viability at 1000 µM ([1]; 1 mM): 99.1%
% cells that survived, Mean [1]: 75%
Aggregation of blood platelets after storage (blood platelets): +

Cc1c(C)c2c(c(C)c1O)CCC(C)(C(=O)N1CCC[C@H]1C(=O)O)O2 (single isomer, unassigned) [SUL - 145]
% cells that survived ([1]; 10 nM): 12.99%
% cells that survived ([1]; 100 nM): 28.68%
% cells that survived ([1]; 1 μM): 21.43%
% cells that survived ([1]; 10 μM): 7.84%
% cells that survived ([1]; 100 μM): 78.61%
% cells that survived ([1]; 1 mM): 88.08%
% cells that survived, Mean [1]: 40%
Aggregation of blood platelets after storage (blood platelets): +
